Columns and labels:
[1] = system: PGE2 production in LPS-treated RAW 264.7 macrophages; test: Inhibition of PGE2 production (PGE2 ELISA kit) in LPS-treated RAW264.7 macrophages; type: cell-based; details: Mus musculus, RAW264.7 macrophages pre-treated 3 h with compound, then LPS (1 μg/mL) 24 h
Procedure: (§1) All isolated compounds (1–9) were evaluated for their anti-inflammatory effects. […] NO is a small molecule which is an intracellular mediator produced in various immune cells. It plays a pivotal role in the physiological and pathological condition of inflammatory symptoms. PGE2 can also regulate the immune and inflammatory responses. In this study, RAW264.7 macrophages were pre-treated for 3 h in the medium containing non-toxic concentrations (Table 2) of each compound (1–9), and then LPS (1 μg/mL) was treated for 24 h. According to the LPS stimulation of RAW264.7 macrophages, production of NO and PGE2 was increased, and the effects of all compounds on the production level of NO and PGE2 were evaluated by the Griess reaction and a PGE2 kit, respectively. […] To evaluate the impact of phenol and resorcinol groups in the curvularin-type metabolites for the anti-inflammatory activity, 5-O-methyl and 5,7,-di-O-methyl derivatives of curvularin (3a and 3b, respectively), as well as 5-O-acetyl and 5,7,-di-O-acetyl derivatives of curvularin (3c and 3d, respectively), were prepared, and the structures of 3a–3d were identified by comparison the ^1H and ^13C-NMR spectroscopic data with those of curvularin (3), and confirmed by their HRESIMS. […] The position of the methoxy group in 3a was confirmed by HMBC correlation between methoxy signal at δH 3.77 (3H, s, 5-OCH3) and δC 161.8 (C-5). The NOESY cross-peaks between acetyl proton ([…]) with H-2, H-4, and H-16 of 3c were used to identify the position of the acetyl group in 3c. […] Further systematic investigations are needed to clarify the structure activity relationship associated with the modification of the aliphatic part of the molecule.
RPMI1640, fetal bovine serum (FBS), and other tissue culture reagents were purchased from Gibco BRL Co. (Grand Island, NY, USA). All other chemicals were obtained from Sigma-Aldrich Co. (St. Louis, MO, USA). Primary antibodies (COX-2: sc-1745; iNOS: sc-650; IκB-α: sc-371; p-IκB-α: sc-8404; p50: sc-7178; p65: sc-8008, Santa Cruz Biotechnology, Dallas, TX, USA, p-ERK: #9101; ERK: #9102; p-JNK: #9251; JNK: #9252S; p-p38: #9211; p38: 9212S, Cell Signaling Technology, Danvers, MA, USA) and secondary antibodies (mouse: ap124p; goat: ap106p; rabbit: ap132p, Millipore, Billerica MA, USA). Enzyme-linked immunosorbent assay (ELISA) kits for PGE2 were purchased from R and D Systems, Inc. (Minneapolis, MN, USA).

RAW264.7 macrophages = test: Cell viability (MTT) cytotoxic assay; type: cell-based
Procedure: RAW264.7 macrophages were maintained at a density of 5 × 10^5 cells/mL in RPMI1640 medium supplemented with 10% heat-inactivated FBS, penicillin G (100 units/mL), streptomycin ([…]), and L-glutamine (2 mM), and were incubated at 37 °C in a humidified atmosphere containing 5% CO2. For determination of cell viability, cells (1 × 10^5 cells/well in 96-well plates) were incubated with 3-(4,5-dimethylthiazol-2-yl)-2,5-diphenyltetrazolium bromide (MTT) at a final concentration of 0.5 mg/mL for 3 h, and the formazan formed was dissolved in acidic 2-propanol. The optical density was measured at 540 nm with a microplate reader (BioRad, Hercules, CA, USA). The optical density of the formazan formed in control (untreated) cells was considered to represent 100% viability.

[2] = system: NO production in LPS-treated RAW 264.7 macrophages; test: Inhibition of NO production (nitrite, Griess reaction) in LPS-treated RAW264.7 macrophages; type: cell-based; details: for inhibitory activity on LPS-induced production of NO and PGE2 (in words): LPS-stimulated RAW264.7 macrophages; for IC50: Mus musculus, RAW264.7 macrophages pre-treated 3 h with compound, then LPS (1 μg/mL) 24 h, Griess reaction
Procedure: as §1
As an indicator of NO production in RAW264.7 macrophages, production of nitrite, a stable end-product of NO oxidation, was estimated. Briefly, the concentration of nitrite in the conditioned media was determined by a method based on the Griess reaction, and the details of the assay were described previously.

[3] = system: pro-inflammatory cytokines and chemokines; parameters: method as in PMID 22767531; details: mice model of chronic induced arthritis; cited from earlier work
iNOS and COX-2 = system: iNOS and COX-2; parameters: method as in PMID 18366037, PMID 12527810; details: human alveolar epithelial A549/8 cells; through blocking activation of STAT-1α; cited from earlier work
human iNOS promotor = system: human iNOS promotor; parameters: method as in PMID 18366037; details: human alveolar epithelial A549/8 cells; compared with (S)-curvularin (3); cited from earlier work
E. coli = system: E. coli; parameters: method as in PMID 26119337; details: growth of E. coli; cited from earlier work

Row | Compound | IC50 [1] | Cytotoxicity (the maximum concentration not affecting cell viability) (RAW264.7 macrophages; RAW264.7 macrophages, MTT) | IC50 [2] | further results
1 | C[C@H]1CCC[C@@H](CC(=O)c2c(O)cc(O)cc2CC(=O)O)O1 [Compound 1, curvulone C] | > 80 µM | >80 µM | > 80 µM | inhibitory activity on LPS-induced production of NO and PGE2 (in words) [2]: appeared to lose the inhibitory activity
2 | COC(=O)Cc1cc(O)cc(O)c1C(=O)C[C@H]1CCC[C@@H](C)O1 [Compound 2, curvulone B] | > 80 µM | >80 µM | > 80 µM | inhibitory activity on LPS-induced production of NO and PGE2 (in words) [2]: appeared to lose the inhibitory activity
3 | CC1CCCCCC(=O)c2c(O)cc(O)cc2CC(=O)O1 (centres unmarked) [Compound 3, curvularin] | – | – | – | expression of pro-inflammatory cytokines and chemokines [3]: suppressive effect; inducible transcription and synthesis of iNOS and COX-2 (iNOS and COX-2): inhibited inducible transcription and synthesis of iNOS and COX-2; Cytotoxicity (the maximum concentration not affecting cell viability) (RAW264.7 macrophages; mouse): 40 µM
4 | COc1cc(O)c2c(c1)CC(=O)O[C@@H](C)CCCCCC2=O [Compound 3a, 5-O-methylcurvularin] | – | >80 µM | – | –
5 | COc1cc2c(c(OC)c1)C(=O)CCCCC[C@H](C)OC(=O)C2 [Compound 3b, 5,7-Di-O-methylcurvularin] | 49.4 ± 14 µM | >80 µM | 60.6 ± 16.4 µM | –
6 | CC(=O)Oc1cc(O)c2c(c1)CC(=O)O[C@@H](C)CCCCCC2=O [Compound 3c, 5-O-acetylcurvularin] | 73.7 ± 17.1 µM | >80 µM | 46.9 ± 3.7 µM | –
7 | CC(=O)Oc1cc2c(c(OC(C)=O)c1)C(=O)CCCCC[C@H](C)OC(=O)C2 [Compound 3d, 5,7-Di-O-acetylcurvularin] | > 80 µM | >80 µM | 77.5 ± 9.3 µM | inhibitory effect on the cytokine-mediated induction of the iNOS promotor (human iNOS promotor): higher inhibitory effect
8 | C[C@H]1CCC[C@@H](O)CC(=O)c2c(O)cc(O)cc2CC(=O)O1 [Compound 4, (11R,15S)-11-hydroxycurvularin] | 15.6 ± 5.2 µM | 40 µM | 11.5 ± 2.7 µM | antibacterial activity (E. coli): inhibiting the growth of E. coli
9 | C[C@H]1CCC[C@H](O)CC(=O)c2c(O)cc(O)cc2CC(=O)O1 [Compound 5, (11S,15S)-11-hydroxycurvularin] | 14.1 ± 4 µM | 40 µM | 7.2 ± 1.6 µM | antibacterial activity (E. coli): inhibiting the growth of E. coli
10 | CO[C@@H]1CCC[C@H](C)OC(=O)Cc2cc(O)cc(O)c2C(=O)C1 [Compound 6, (11R,15S)-11-methoxycurvularin] | – | 20 µM | – | –
11 | CO[C@H]1CCC[C@H](C)OC(=O)Cc2cc(O)cc(O)c2C(=O)C1 [Compound 7, (11S,15S)-11-methoxycurvularin] | – | 20 µM | – | –
12 | C[C@H]1CCC/C=C\C(=O)c2c(O)cc(O)cc2CC(=O)O1 [Compound 9, (10Z,15S)-10,11-dehydrocurvularin] | 6.2 ± 1.1 µM | 20 µM | 4.4 ± 0.8 µM | –

From publication PMC5618421, “Anti-Inflammatory Effects of Curvularin-Type Metabolites from a Marine-Derived Fungal Strain Penicillium sp. SF-5859 in Lipopolysaccharide-Induced RAW264.7 Macrophages” (Marine Drugs, 2017)
